In US20120077837A1, “ANTI-TUMOR AGENT” (EISAI R&D MANAGEMENT CO., LTD., priority 2010, published 2012):

System: human renal cell carcinoma cell line (Caki-1)
Assay: Tumor growth-inhibitory action by combined use of Compound A and everolimus in nude mice transplanted with Caki-1
Type: in vivo
Details: subcutaneous Caki-1 xenograft, oral once per day, Compound A 10 mg/kg, everolimus 30 mg/kg
Description: Using 5 individuals per group of nude mice (CAnN.Cg-Foxn1nu/Cr1Cr1j, female, Charles River Japan, Inc.), the antitumor effect obtained when Compound A, everolimus or the both compounds was/were administered was evaluated. Human-derived renal cell carcinoma cell line Caki-1(ATCC) was added to a medium (RPMI-1640, Wako Pure Chemical Industries, Ltd.) to a density of 2×10^8 cells/mL and suspended therein. To the resulting suspension, an equal volume of Matrigel™ matrix (Nippon Becton Dickinson Co., Ltd.) was added, and the resulting mixture was mixed sufficiently. The mixture was subcutaneously transplanted at the left flank of each mouse in an amount of 0.1 mL.
Forty eight days after the transplantation, the major axis and the minor axis were measured using an electronic digital caliper (Digimatic™ caliper, Mitutoyo Corporation). The mice were separated into groups such that the average value of the tumor volume is almost the same among the groups. The volume of the tumor was calculated according to the equation below.
Tumor volume=major axis (mm)×minor axis (mm)×minor axis (mm)/2
Compound A was dissolved in purified water to a concentration of 1 mg/mL. Further, everolimus was suspended in a mixed solution of DMSO, Tween 80 and glucose (3.5:6.5:90 (V/V/V), hereinafter referred to as solvent) to a concentration of 3 mg/mL.
To the mice of each group, the Compound A solution and the solvent, the everolimus suspension and purified water, or the Compound A solution and the everolimus suspension were orally administered in an amount of 10 mL/kg once per day for 15 days. The doses of Compound A and everolimus were 10 mg/kg and 30 mg/kg, respectively. To the control group, 10 mL/kg each of purified water and the solvent was administered.
The tumor volume of each mouse was measured on Day 4, 7, 11 and 14 after the beginning of the administration. The ratio of the tumor volume observed on each day of the measurement relative to the tumor volume observed on the day when the administration was begun was calculated as the relative tumor volume (hereinafter referred to as RTV).

[1] = Day 4 after beginning of administration
[2] = Day 7 after beginning of administration
[3] = Day 11 after beginning of administration
[4] = Day 14 after beginning of administration

| SMILES | relative tumor volume (RTV) [1] | relative tumor volume (RTV) [2] | relative tumor volume (RTV) [3] | relative tumor volume (RTV) [4] |
| --- | --- | --- | --- | --- |
| COc1cc2nccc(Oc3ccc(NC(=O)NC4CC4)c(Cl)c3)c2cc1C(N)=O [Compound A, 4-[3-chloro-4-(cyclopropylaminocarbonyl)aminophenoxy]-7-methoxy-6-quinolinecarboxamide] | 1.15 | 1.15 | 1.07 | 1.02 |
| COC1CC2CCC(C)C(O)(O2)C(=O)C(=O)N2CCCCC2C(=O)OC(C(C)CC2CCC(OCCO)C(OC)C2)CC(=O)C(C)/C=C(\C)C(O)C(OC)C(=O)C(C)CC(C)/C=C/C=C/C=C/1C (centres unmarked) [Everolimus, 42-O-(2-hydroxyethyl)-rapamycin] | 1.03 | 0.97 | 0.95 | 0.92 |
